Reference: patent US10253319B2, “miRNA modulators of thermogenesis” (AptamiR Therapeutics, Inc., priority 2012, dated 2019)

System: UCP3
Assay: UCP3 mRNA expression change in pre-adipocytes, RNA-Seq (Table 14)
Assay type: cell-based, human
Settings: 12 days, 100 nM rosiglitazone or 25 nM miRNA analog
Method: In order to assess the effect of miRNA analogs on human pre-adipocytes differentiation into mature adipocytes, human subcutaneous pre-adipocytes (SuperLot 0048 from 8 female donors, ZenBio, NC) were plated on Day 0 into 96-well plates and allowed to attach overnight in preadipocyte medium (DMEM/Ham's F-12 (1:1, v/v), HEPES buffer, Fetal bovine serum and Antibiotics). The next day (Day 1), the medium was removed and replaced with differentiation medium (DMEM/Ham's F-12 (1:1, v/v), 100 μM Ascorbic Acid, 0.85 μM insulin, 20 nM sodium selenite, 0.2 nM, triiodothryonine, 1 μM dexamethasone, 100 μM isobutyl-methylxanthine, 100 nM Rosiglitazone and Antibiotics. The cells were allowed to incubate for 2 days at 37°, 5% CO2. After 2 days (Day 3), the medium was removed and replaced with fresh maintenance medium (DMEM/Ham's F-12 (1:1, v/v), 100 μM Ascorbic Acid, 0.85 μM insulin, 20 nM sodium selenite, 0.2 nM triiodothryonine, and Antibiotics). On Day 3, the cells were transfected with miRNA analogs (Dharmacon specific miRIDIAN Mimics and Hairpin Inhibitors) using the transfecting agent Dharmafect1. All treatments were in triplicate. […]
Changes in mRNA expression of UCP1, 2 and 3 were also measured in the presence of rosiglitazone or miRNA analogs, as shown below in Table 14.

## CN(CCOc1ccc(CC2SC(=O)NC2=O)cc1)c1ccccn1 (stereo not shown) [rosiglitazone]
  mRNA Expression changes (log ratios) UCP3: 0.26 log ratios
